Drawing on patent US8937077B2, “Bicyclic diamines as janus kinase inhibitors” (Merck Sharp & Dohme Corp., priority 2010, dated 2015), this text covers IC50 for 29 molecules.

Structures are written as SMILES.

For one experiment, the target named is T1, Jak1 (Homo sapiens, UniProt P23458).
T1 construct: using a recombinant purified GST-tagged catalytic domain for each enzyme; GST; purchased Invitrogen M4290
T1 sequence (P23458 875-1153 limits assumed): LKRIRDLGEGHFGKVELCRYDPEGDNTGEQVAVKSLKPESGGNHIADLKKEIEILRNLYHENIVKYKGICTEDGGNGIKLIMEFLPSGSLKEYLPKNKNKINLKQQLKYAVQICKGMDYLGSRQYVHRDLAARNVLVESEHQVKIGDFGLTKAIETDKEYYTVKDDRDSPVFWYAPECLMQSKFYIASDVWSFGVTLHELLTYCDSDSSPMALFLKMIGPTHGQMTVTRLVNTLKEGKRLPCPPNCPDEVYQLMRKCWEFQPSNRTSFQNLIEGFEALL
The experiment is described as follows: Jak Biochemical HTRF Assay (Jak1). The settings on record: IC50 class, recombinant GST-tagged catalytic domain, read-out: Jak1 activity. In a few lines:
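Recombinant GST-tagged Jak1 catalytic domain was preincubated with compound and peptide substrate for 30 min at room temperature, and the reaction was then started with ATP and run 120 min. Buffer contained 2 mM DTT and 0.05% BSA. Read-out was HTRF (665/615 nm) with Eu-pY20 antibody and streptavidin-Dylight, and IC50 values came from 4-parameter fits of percent inhibition.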
In general terms: In TR-FRET formats the signal depends on donor and acceptor labels being close together.
With `O=C(OC(CCN1CCOCC1)c1ccccc1)N1CCC[C@@H]2C1CCN2c1ncnc2[nH]ccc12` (mixture of isomers) [Example 8-3, (1R and 1S)-3-(morpholin-4-yl)-1-phenylpropyl (3aR,7aR)-1-(7H-pyrrolo[2,3-d]pyrimidin-4-yl)octahydro-4-pyrrolo[3,2-b]pyridine-4-carboxylate], the IC50 fell in the range of 100 to 1000 nM.

On to `O=C(OCc1cccnc1)N1CCC[C@@H]2[C@H]1CCN2c1ncnc2[nH]ccc12` [Example 3-19, pyridin-3-ylmethyl (3aR,7aR)-1-(7H-pyrrolo[2,3-d]pyrimidin-4-yl)octahydro-4H-pyrrolo[3,2-b]pyridine-4-carboxylate], for which the IC50 lay in the range of 100 to 1000 nM. In the case of `CO[C@](C(=O)N1CCC[C@@H]2[C@H]1CCN2c1ncnc2[nH]ccc12)(c1ccccc1)C(F)(F)F` [Example 18, (2S)-3,3,3-trifluoro-2-methoxy-2-phenyl-1-[(3aR,7aR)-1-(7H-pyrrolo[2,3-d]pyrimidin-4-yl)octahydro-4H-pyrrolo[3,2-b]pyridine-4-yl]propan-1 one], the IC50 fell in the range of 100 to 1000 nM.

Regarding `COCCOC(=O)N1CCC[C@@H]2[C@H]1CCN2c1ncnc2[nH]ccc12` (single isomer, unassigned) [Example 3-35], the IC50 is 10 to 100 nM.

On to `c1nc(N2CCC3NCCC[C@@H]32)c2cc[nH]c2n1` (single isomer, unassigned) [Enantiomer 1], for which the IC50 was in the range of 100 to 1000 nM. The same measure, in the same setting: then `Cc1ccc(COC(=O)N2CCCC3C2CCN3c2ncnc3[nH]ccc23)cc1` (stereo not drawn) [Example 3-17, 4-methylbenzyl 1-(7H-pyrrolo[2,3-d]pyrimidin-4-yl)octahydro-4H-pyrrolo[3,2-b]-pyridine-4-carboxylate], with 10 to 100 nM; and `O=C(O)c1ccc(CCC(=O)N2CCC[C@@H]3[C@H]2CCN3c2ncnc3[nH]ccc23)cc1` [Example 27, 4-{3-oxo-3-[(3aR,7aR)-1-(7H-pyrrolo[2,3-d]pyrimidin-4-yl)octahydro-4H-pyrrolo[3,2-b]pyridin-4-yl]propyl}benzoic acid], with 10 to 100 nM; and `CCC[C@H]1C[C@H]1C(=O)N1CCC[C@@H]2[C@H]1CCN2c1ncnc2[nH]ccc12` [Example 29-30, 4-[(3aR,7aR)-4-{[(1R,2S)-2-propylcyclopropyl]carbonyl}octahydro-1H-pyrrolo[3,2-b]pyridin-1-yl]-7H-pyrrolo[2,3-d]pyrimidine], with 10 to 100 nM. Turning to `O=S(=O)(Cc1ccccc1)N1CCC[C@@H]2[C@H]1CCN2c1ncnc2[nH]ccc12` (single isomer, unassigned) [Example 32-7], the IC50 fell in the range of 10 to 100 nM. As to `CCS(=O)(=O)N1CCC[C@@H]2[C@H]1CCN2c1ncnc2[nH]ccc12` (single isomer, unassigned) [Example 32-3], the IC50 is 10 to 100 nM. As for `O=C(c1ccccc1-c1ccccc1)N1CCC[C@@H]2[C@H]1CCN2c1ncnc2[nH]ccc12` [Example 29-23, 4-[(3aR,7aR)-4-(biphenyl-2-ylcarbonyl)octahydro-1H-pyrrolo[3,2-b]pyridin-1-yl]-7H-pyrrolo[2,3-d]pyrimidine], the IC50 lay within 100 to 1000 nM. Still for that read-out and setting: then `O=C(c1cccc2ccccc12)N1CCC[C@@H]2[C@H]1CCN2c1ncnc2[nH]ccc12` [Example 29-20, 4-[(3aR,7aR)-4-(naphthalen-1-ylcarbonyl)octahydro-1H-pyrrolo[3,2-b]pyridin-1-yl]-7H-pyrrolo[2,3-d]pyrimidine], with 10 to 100 nM; and `Cn1ccc2cc(C(=O)N3CCC[C@@H]4[C@H]3CCN4c3ncnc4[nH]ccc34)cnc21` [Example 29-50, 4-{(3aR,7aR)-4-[(1-methyl-1H-pyrrolo[2,3-b]pyridin-5-yl)carbonyl]octahydro-1H-pyrrolo[3,2-b]pyridin-1-yl}-7H-pyrrolo[2,3-d]pyrimidine], with 100 to 1000 nM; and `CC(C(=O)N1CCC[C@@H]2[C@H]1CCN2c1ncnc2[nH]ccc12)N1CCOCC1` (mixture of isomers) [Example 29-43, 4-[(3aR,7aR)-4-(2-morpholin-4-ylpropanoyl)octahydro-1H-pyrrolo[3,2-b]pyridin-1-yl]7H-pyrrolo[2,3-d]pyrimidine], with 10 to 100 nM.

For the molecule `O=C(Cn1cnc2ccccc21)N1CCC[C@@H]2[C@H]1CCN2c1ncnc2[nH]ccc12` [Example 29-53, 4-[(3aR,7aR)-4-(1H-benzimidazol-1-ylacetyl)octahydro-1H-pyrrolo[3,2-b]pyridin-1-yl]-7H-pyrrolo[2,3-d]pyrimidine], the IC50 was 100 to 1000 nM. Same read-out and setting: the result for `COC(=O)c1ccc(CNC(=O)N2CCC[C@@H]3[C@H]2CCN3c2ncnc3[nH]ccc23)cc1` [Example 23, methyl 4-[({[(3aR,7aR)-1-(7H-pyrrolo[2,3-d]pyrimidin-4-yl)octahydro-4H-pyrrolo[3,2-b]-pyridine-4-yl]carbonyl}amino)methyl]benzoate] reads 10 to 100 nM; that for `CN1CCN(c2ccc(C(=O)N3CCCC4C3CCN4c3ncnc4[nH]ccc34)cc2)CC1` (stereo not drawn) [Example 29-6, 4-(4-{[4-(4-methylpiperazin-1-yl)phenyl]carbonyl}octahydro-1H-pyrrolo[3,2-b]pyridin-1-yl)-7H-pyrrolo[2,3-d]pyrimidine], 100 to 1000 nM. The same measure, in the same setting: the result for `O=C(c1cccc2ccncc12)N1CCC[C@@H]2[C@H]1CCN2c1ncnc2[nH]ccc12` [Example 29-39, 8-{[(3aR,7aR)-1-(7H-pyrrolo[2,3-d]pyrimidin-4-yl)octahydro-4H-pyrrolo[3,2-b]pyridin-4-yl]carbonyl}isoquinoline] reads 10 to 100 nM; that for `O=C(OCCc1ccccc1)N1CCCC2C1CCN2c1ncnc2[nH]ccc12` (stereo not drawn) [Example 3-8, 2-phenylethyl 1-(7H-pyrrolo[2,3-d]pyrimidin-4-yl)octahydro-4H-pyrrolo[3,2-b]pyridine-4-carboxylate], 10 to 100 nM.

Regarding `O=C(c1ccco1)N1CCC[C@@H]2[C@H]1CCN2c1ncnc2[nH]ccc12` [Example 29-9, 4-[(3 aR,7aR)-4-(furan-2-ylcarbonyl)octahydro-1H-pyrrolo[3,2-b]pyridin-1-yl]-7H-pyrrolo[2,3-d]pyrimidine], the IC50 lay in the range of 10 to 100 nM. On the same count and under the same terms, then `COc1ccc(CC(=O)N2CCCC3C2CCN3c2ncnc3[nH]ccc23)cc1` (stereo not drawn) [Example 29-4, 4-{4-[(4-methoxyphenyl)acetyl]octahydro-1H-pyrrolo[3,2-b]pyridin-1-yl}-7H-pyrrolo[2,3-d]pyrimidine], with 10 to 100 nM; and `O=C(O)c1ccc(CNC(=O)N2CCC[C@@H]3[C@H]2CCN3c2ncnc3[nH]ccc23)cc1` [Example 25, 4-[({[(3aR,7aR)-1-(7H-pyrrolo[2,3-d]pyrimidin-4-yl)octahydro-4H-pyrrolo[3,2-b]pyridin-4-yl]carbonyl}amino)methyl]benzoic acid], with 100 to 1000 nM. Same read-out and setting: the result for `O=C(c1cn2cccnc2n1)N1CCC[C@@H]2[C@H]1CCN2c1ncnc2[nH]ccc12` [Example 29-27, 4-[(3aR,7aR)-4-(imidazo[1,2-a]pyrimidin-2-ylcarbonyl)octahydro-1H-pyrrolo[3,2-b]pyridin-1-yl]-7H-pyrrolo[2,3-d]pyrimidine] reads 10 to 100 nM; that for `O=C(c1cccc2cnccc12)N1CCC[C@@H]2[C@H]1CCN2c1ncnc2[nH]ccc12` [Example 29-37, 5-{[(3aR,7aR)-1-(7H-pyrrolo[2,3-d]pyrimidin-4-yl)octahydro-4H-pyrrolo[3,2-b]pyridin-4-yl]carbonyl}isoquinoline], 10 to 100 nM; that for `O=C(OC1Cc2ccccc2C1)N1CCCC2C1CCN2c1ncnc2[nH]ccc12` (stereo not drawn) [Example 3-11, 2,3-dihydro-1H-inden-2-yl 1-(7H-pyrrolo[2,3-d]pyrimidin-4-yl)octahydro-4H-pyrrolo[3,2-b]pyridine-4-carboxylate], 10 to 100 nM. Still for that read-out and setting: then `O=C(C(c1ccccc1)c1ccccc1)N1CCC[C@@H]2[C@H]1CCN2c1ncnc2[nH]ccc12` [Example 29-24, 4-[(3aR,7aR)-4-(diphenylacetyl)octahydro-1H-pyrrolo[3,2-b]pyridin-1-yl]-7H-pyrrolo[2,3-d]pyrimidine], with 100 to 1000 nM.

Turning to `O=C(c1ccc(N2CCOCC2)cc1)N1CCCC2C1CCN2c1ncnc2[nH]ccc12` [Example 29-1, (3aS,7aS and 3aR,7aR) 4-{4-[(4-morpholin-4-ylphenyl)carbonyl]octahydro-1H-pyrrolo[3,2-b]pyridin-1-yl}-7H-pyrrolo[2,3-d]pyrimidine], the IC50 lay within 100 to 1000 nM. Turning to `COC(=O)c1ccc(COC(=O)N2CCCC3C2CCN3c2ncnc3[nH]ccc23)cc1` (stereo not drawn) [Example 3-25, 4-(methoxycarbonyl)benzyl 1-(7H-pyrrolo[2,3-d]pyrimidin-4-yl)octahydro-4H-pyrrolo[3,2-b]pyridine-4-carboxylate], the IC50 lay in the range of 1 to 10 nM. Still for that read-out and setting: the result for `O=C(c1cccnc1)N1CCC[C@@H]2[C@H]1CCN2c1ncnc2[nH]ccc12` [Example 29-10, 4-[(3aR,7aR)-4-(pyridin-3-ylcarbonyl)octahydro-1H-pyrrolo[3,2-b]pyridin-1-yl]-7H-pyrrolo[2,3-d]pyrimidine] reads 10 to 100 nM.

Staying with this experiment, now noted: recombinant GST-tagged catalytic domain, 31.8 μM ATP, read-out: Representative IC50 values.
With `COC(=O)c1ccc(CNC(=O)N2CCC[C@@H]3[C@H]2CCN3c2ncnc3[nH]ccc23)cc1` [Example 23, methyl 4-[({[(3aR,7aR)-1-(7H-pyrrolo[2,3-d]pyrimidin-4-yl)octahydro-4H-pyrrolo[3,2-b]-pyridine-4-yl]carbonyl}amino)methyl]benzoate], the IC50 is 39 nM.
